One assay concerns the target mammal prion PrP (Mus musculus, UniProt P04925). The settings on record: cited from earlier work.
Assay [1] has as its system [PSI+] prion (prion form of the protein Sup35p), STRg6 strain. The class given is cell-based, Saccharomyces cerevisiae. Particulars: for activity against the [PSI+] prion (FIG. 7, validation of the screen) / activity compared with another compound in the screen: medium contains 200 μM of guanidium chloride; for relative anti-prion activity on a dish (FIG. 4): 10 μl of a 10 mM solution applied; for synergy of action with guanidium chloride: sub-effective guanidium chloride in medium (200 μM, 500 μM).

Assay [2] has as its system [URE3] prion (Ure2p), NT34 strain. The format is cell-based, Saccharomyces cerevisiae. Particulars: for red halo on NT34 lawn ([URE3] secondary screen): FIG. 6.
Assay [3] relates to [PSI+] prion, "strong" strain 74-D694. The class given is cell-based, Saccharomyces cerevisiae.
The subject of assay [4] is [URE3] prion, NT34 and CC34 strains. The class given is cell-based, Saccharomyces cerevisiae.
Assay [5] has as its target PrP^sc in ScN2a-22L cells (Mus musculus, UniProt P04925). The class given is cell-based.

“Also recorded” adds a separate entry of the source.

mammal prion PrP, sequence (P04925 23-230 limits assumed): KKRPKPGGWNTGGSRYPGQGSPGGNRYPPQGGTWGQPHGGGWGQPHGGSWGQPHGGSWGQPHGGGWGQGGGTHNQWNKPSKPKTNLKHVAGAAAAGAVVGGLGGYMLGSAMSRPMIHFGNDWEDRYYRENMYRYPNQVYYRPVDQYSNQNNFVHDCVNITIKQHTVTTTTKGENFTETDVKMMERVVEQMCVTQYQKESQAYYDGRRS
PrP^sc in ScN2a-22L cells, sequence (P04925 23-230 limits assumed): as above

For `CN(C)CC/C=C1/c2ccccc2Sc2ccc(Cl)cc21` [chloroprothixene], the “activity in the mammal system (Prof. Prusiner's test)” value (shortened to “activity in the mammal system”) at mammal prion PrP is “inactive”. In assay [1], the “activity against the [PSI+] prion (FIG. 7, validation of the screen)” value (“activity against the [PSI+] prion” below) was “inactive”.
Regarding `O=C(CCCN1CCC(O)(c2ccc(Cl)cc2)CC1)c1ccc(F)cc1` [haloperidol], on mammal prion PrP, the “activity in the mammal system” value was “inactive”. The “activity against the [PSI+] prion” value in assay [1] was “inactive”.
Take `COc1ccc(CCN(C)CCCC(C#N)(c2ccc(OC)c(OC)c2)C(C)C)cc1OC` (stereo not drawn) [verapamil]: the “activity against the [PSI+] prion” value in assay [1] is given as “no curative effect could be detected”.
As for `CC(=O)c1ccc2c(c1)N(CCCN(C)C)c1ccccc1S2` [acepromazine], the “activity in the mammal system” value on mammal prion PrP is given as “slightly active”. In assay [1], the “activity against the [PSI+] prion” value is reported as “weak activity”.
As to `CCN(CC)CCCC(C)Nc1c2ccc(Cl)cc2nc2ccc(OC)cc12` (stereo not drawn) [quinacrine], in assay [1], the “activity against the [PSI+] prion” value is on record as “a certain activity” and the “activity compared with another compound in the screen” value is recorded as “clearly weaker than that of 6-aminophenanthridine; also recorded: activity greater than the latter”.
Regarding `Nc1nc2ccccc2c2ccc(Cl)cc12` [6A-8CP, 6-amino-8-chlorophenanthridine], the “relative anti-prion activity on a dish (FIG. 4)” value (shortened to “relative anti-prion activity”) in assay [1] was “again increased the activity”.
On to `Nc1nc2ccccc2c2ccccc12` [6-aminophenanthridine], for which the “red halo on NT34 lawn ([URE3] secondary screen)” value in assay [2] was “cause the appearance of a red halo”. Further, the “curing of the [PSI+] prion in liquid medium” value in assay [3] (5 days liquid culture, compound alone, FIG. 5) was “capable of partially curing the [PSI+] prion from a significant number of cells”. In addition, the “curing effectiveness with added guanidium chloride in liquid medium” value in assay [3] (plus sub-effective dose (100 μM) of guanidium chloride) is listed as “increased”. In addition, the “colony colour of NT34 cells recovered around the filter, on fresh medium free of molecules” value in assay [4] is “red colonies”. The “curing of the [URE3] prion (ability to grow on USA medium)” value in assay [4] (CC34 strain, different doses, alone) was “capable of curing the [URE3] prion in a significant manner”. In addition, the “curing of the [URE3] prion in combination with guanidium chloride” value in assay [4] (CC34 strain, with 200 μM of guanidium chloride) was “accentuated”. Further, in assay [1], the “general statement of anti-prion activity in the screen” value was “particularly active”; the “relative anti-prion activity” value is “still more active than the Kastellpaolitines and phenanthridine”. For the same compound, the “elimination of the mammal prion in vitro (summary)” value in assay [5] is given as “effective”. The “effect on the elimination of PrPsc” value in assay [5] (at 2 and 4 μM) is recorded as “same effect”.
In the case of `CN(C)CCCN1c2ccccc2Sc2ccc(Cl)cc21` [chlorpromazine], in assay [1], the “activity against the [PSI+] prion” value is “a certain activity”; the “activity compared with another compound in the screen” value is “clearly weaker than that of 6-aminophenanthridine”; the “synergy of action with guanidium chloride” value was “strong synergy of action”.
Regarding `NC(=O)N1c2ccccc2C=Cc2ccccc21` [carbamazepine], the “activity in the mammal system” value on mammal prion PrP was “inactive”. Also, the “activity against the [PSI+] prion” value in assay [1] was “inactive”.
`Nc1nc2ccccc2c2ccc(C(F)(F)F)cc12` [6A-8tFP, 6-amino-8-trifluoromethylphenanthridine]: the “relative anti-prion activity” value in assay [1] is “one of the most active compounds”.
`Cl.N=C(N)N` [guanidium chloride]: the “colony colour of NT34 strain after treatment” value in assay [2] (5 mM of guanidium chloride for approximately ten generations) is reported as “red colonies”. For the same compound, the “curing of [PSI+] cells (red staining of the drop of cells)” value in assay [3] (5 mM guanidium chloride, 0.2% DMSO, after 48 hours (approximately 12 generations)) is “complete curing”. For the same compound, the “colony colour of NT34 cells recovered around the filter, on fresh medium free of molecules” value in assay [4] is on record as “red colonies”.
For `c1ccc2c(c1)cnc1ccccc12` [phenanthridine], the “red halo on NT34 lawn ([URE3] secondary screen)” value in assay [2] is listed as “cause the appearance of a red halo”. Also, the “colony colour of NT34 cells recovered around the filter, on fresh medium free of molecules” value in assay [4] was “red colonies”. In assay [1], the “general statement of anti-prion activity in the screen” value is given as “particularly active” and the “synergy of action with guanidium chloride” value was “activity increases significantly as a function of the quantity of guanidium chloride”. Moreover, in assay [1] (15 μl of a 10 mM solution in DMSO, medium with 0.2 mM guanidium chloride, FIG. 3), the “anti-prion activity: red halo around the filter disc (size of the halo)” value is listed as “positive signal”. The “activity on a medium without guanidium chloride” value in assay [1] (medium without guanidium chloride) is “always active”.
With `CN(C)CCCN1c2ccccc2CCc2ccccc21` [imipramine], the “activity in the mammal system” value at mammal prion PrP is “inactive”. Moreover, the “activity against the [PSI+] prion” value in assay [1] is “inactive”.
With `CN(C)c1ccc2nc3ccc(=[N+](C)C)cc-3sc2c1` [methylene blue], the “activity in the mammal system” value at mammal prion PrP was “inactive”. The “activity against the [PSI+] prion” value in assay [1] was “inactive”.

Values taken from patent US8129402B2 (priority 2002, dated 2012).
